Results from ChEMBL document CHEMBL3526034 (Drug Metab Dispos, 2013).
pIC50: −log10 of the molar value.

Tests used:
[1] = molecular target: T1, UDP-glucuronosyltransferase 1A1 (Homo sapiens, UniProt P22309); assay: Inhibition of human recombinant UGT1A1 expressed in supersomes assessed as scopoletin glucuronidation by fluorescence analysis; type: ADME
T1 sequence (P22309 whole entry): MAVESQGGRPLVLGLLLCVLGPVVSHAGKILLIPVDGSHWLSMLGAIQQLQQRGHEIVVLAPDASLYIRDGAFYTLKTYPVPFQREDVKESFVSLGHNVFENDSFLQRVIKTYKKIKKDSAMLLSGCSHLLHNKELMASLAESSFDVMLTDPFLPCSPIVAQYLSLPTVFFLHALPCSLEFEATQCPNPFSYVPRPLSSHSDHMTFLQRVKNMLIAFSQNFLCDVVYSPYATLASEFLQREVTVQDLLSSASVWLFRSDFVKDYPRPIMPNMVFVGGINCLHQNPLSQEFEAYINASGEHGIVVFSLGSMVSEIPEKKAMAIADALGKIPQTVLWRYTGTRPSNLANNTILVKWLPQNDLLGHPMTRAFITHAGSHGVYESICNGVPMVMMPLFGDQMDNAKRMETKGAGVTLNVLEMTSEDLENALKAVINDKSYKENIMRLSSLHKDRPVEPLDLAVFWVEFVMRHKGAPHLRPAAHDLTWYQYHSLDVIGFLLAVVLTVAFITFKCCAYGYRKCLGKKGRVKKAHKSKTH

[2] = molecular target: UDP-glucuronosyltransferase 2B7 (Homo sapiens, UniProt P16662); assay: Inhibition of human recombinant UGT2B7 expressed in supersomes assessed as 7-HFC glucuronidation up to 100 uM by fluoresence analysis; type: ADME; settings: recombinant enzyme
Hepatocyte = assay: Induction of CYP2B6 mRNA expression in human hepatocytes at 1 to 40 uM after 48 hrs by real time PCR analysis; type: ADME, cell-based
Cytochrome P450 1A2 = molecular target: T2, Cytochrome P450 1A2 (Homo sapiens, UniProt P05177); assay: Metabolism-dependent inhibition of CYP1A2 in human liver microsomes using phenacetin as substrate preincubated for 20 mins with NADPH prior to initiation of reaction with probe substrate by HPLC analysis; type: ADME
T2 sequence (P05177 whole entry): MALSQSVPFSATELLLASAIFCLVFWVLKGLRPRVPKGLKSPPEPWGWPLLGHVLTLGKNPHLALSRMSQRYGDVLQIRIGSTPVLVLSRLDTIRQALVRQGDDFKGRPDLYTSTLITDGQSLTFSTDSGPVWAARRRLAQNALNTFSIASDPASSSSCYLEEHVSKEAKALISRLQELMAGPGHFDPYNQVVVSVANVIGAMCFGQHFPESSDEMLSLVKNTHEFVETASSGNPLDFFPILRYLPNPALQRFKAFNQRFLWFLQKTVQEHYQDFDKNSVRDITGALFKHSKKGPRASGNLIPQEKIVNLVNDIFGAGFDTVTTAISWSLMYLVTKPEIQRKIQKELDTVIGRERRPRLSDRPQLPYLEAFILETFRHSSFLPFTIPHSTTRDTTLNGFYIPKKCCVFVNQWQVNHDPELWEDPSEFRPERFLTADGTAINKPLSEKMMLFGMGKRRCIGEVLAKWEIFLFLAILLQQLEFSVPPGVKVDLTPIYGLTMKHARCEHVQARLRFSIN

Cytochrome P450 2B6 [3] = molecular target: T3, Cytochrome P450 2B6 (Homo sapiens, UniProt P20813); assay: Metabolism-dependent inhibition of CYP2B6 in human liver microsomes using bupropion as substrate preincubated for 20 mins with NADPH prior to initiation of reaction with probe substrate by HPLC analysis; type: ADME
T3 sequence (P20813 whole entry): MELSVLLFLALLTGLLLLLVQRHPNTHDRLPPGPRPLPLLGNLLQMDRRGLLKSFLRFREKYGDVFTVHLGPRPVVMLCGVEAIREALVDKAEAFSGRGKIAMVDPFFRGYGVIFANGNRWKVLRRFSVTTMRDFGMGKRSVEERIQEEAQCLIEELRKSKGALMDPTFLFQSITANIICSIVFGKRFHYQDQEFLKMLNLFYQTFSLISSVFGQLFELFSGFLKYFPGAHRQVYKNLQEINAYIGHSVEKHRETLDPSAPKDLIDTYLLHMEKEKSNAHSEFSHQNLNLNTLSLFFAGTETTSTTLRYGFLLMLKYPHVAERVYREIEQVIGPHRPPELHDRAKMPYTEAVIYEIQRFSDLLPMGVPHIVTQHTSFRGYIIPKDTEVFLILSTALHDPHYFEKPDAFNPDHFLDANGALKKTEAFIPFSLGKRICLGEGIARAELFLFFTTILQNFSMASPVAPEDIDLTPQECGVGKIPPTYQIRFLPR

Cytochrome P450 2C19 = Cytochrome P450 2C19 (Homo sapiens, UniProt P33261); assay: Metabolism-dependent inhibition of CYP2C19 in human liver microsomes using S-mephenytoin as substrate preincubated for 20 mins with NADPH prior to initiation of reaction with probe substrate by HPLC analysis; type: ADME
MDR1 (P-gp, ABCB1) = MDR1 (P-gp, ABCB1) (Homo sapiens, UniProt P08183); assay: Activity at human MDR1 expressed in MDCK2 cells assessed as basolateral to apical mass balance at 3 uM by liquid scintillation counting analysis; type: ADME, cell-based, MDCK-II; settings: MDCK-MDR1, read-out: Activity
[4] = In vitro passive membrane permeability across dog MDCK2 cells at 3 uM using fasted state-simulated intestinal fluid buffer at pH 5.5 on donor side and 1% human serum albumin at pH 7.4 on receiver side by liquid scintillation counting analysis; type: ADME, cell-based, Canis lupus familiaris, MDCK-II; settings: MDCK, read-out: permeability
Cytochrome P450 3A4 = Cytochrome P450 3A4 (Homo sapiens, UniProt P08684); assay: Drug metabolism in supersomes expressing human recombinant CYP3A4 assessed as for NADPH-fortified enzyme-mediated metabolite M1 ((4R,12aS)-7-hydroxy-4-methyl-6,8-dioxo-3,4,6,8,12,12a-hexahydro-2H-[1,3]oxazino[3,2-d]pyrido[1,2-a]pyrazine-9-carboxamide) formation at 5 uM after 120 mins by radio-HPLC analysis; type: ADME
Cytochrome P450 2B6 [5] = molecular target: T3, Cytochrome P450 2B6; assay: Inhibition of CYP2B6 in human liver microsomes using bupropion as substrate preincubated for 20 mins with substrate prior to initiation of reaction with NADPH by HPLC analysis; type: ADME
Liver microsome = assay: Drug metabolism in UDPGA-fortified human liver microsomes assessed as DTG glucuronide metabolite ((2S,3S,4S,5R,6S)-6-((4R,12aS)-9-(2,4-difluorobenzylcarbamoyl)-4-methyl-6,8-dioxo-3,4,6,8,12,12a-hexahydro-2H-[1,3]oxazino[3,2-d]pyrido[1,2-a]pyrazin-7-yloxy)-3,4,5-trihydroxytetrahydro-2H-pyran-2-carboxylic acid) formation at 10 uM after 120 mins by radio-HPLC analysis in presence of UGT1A1 inhibitor atazanavir; type: ADME

MDR1 (P-gp, ABCB1), sequence (P08183 whole entry): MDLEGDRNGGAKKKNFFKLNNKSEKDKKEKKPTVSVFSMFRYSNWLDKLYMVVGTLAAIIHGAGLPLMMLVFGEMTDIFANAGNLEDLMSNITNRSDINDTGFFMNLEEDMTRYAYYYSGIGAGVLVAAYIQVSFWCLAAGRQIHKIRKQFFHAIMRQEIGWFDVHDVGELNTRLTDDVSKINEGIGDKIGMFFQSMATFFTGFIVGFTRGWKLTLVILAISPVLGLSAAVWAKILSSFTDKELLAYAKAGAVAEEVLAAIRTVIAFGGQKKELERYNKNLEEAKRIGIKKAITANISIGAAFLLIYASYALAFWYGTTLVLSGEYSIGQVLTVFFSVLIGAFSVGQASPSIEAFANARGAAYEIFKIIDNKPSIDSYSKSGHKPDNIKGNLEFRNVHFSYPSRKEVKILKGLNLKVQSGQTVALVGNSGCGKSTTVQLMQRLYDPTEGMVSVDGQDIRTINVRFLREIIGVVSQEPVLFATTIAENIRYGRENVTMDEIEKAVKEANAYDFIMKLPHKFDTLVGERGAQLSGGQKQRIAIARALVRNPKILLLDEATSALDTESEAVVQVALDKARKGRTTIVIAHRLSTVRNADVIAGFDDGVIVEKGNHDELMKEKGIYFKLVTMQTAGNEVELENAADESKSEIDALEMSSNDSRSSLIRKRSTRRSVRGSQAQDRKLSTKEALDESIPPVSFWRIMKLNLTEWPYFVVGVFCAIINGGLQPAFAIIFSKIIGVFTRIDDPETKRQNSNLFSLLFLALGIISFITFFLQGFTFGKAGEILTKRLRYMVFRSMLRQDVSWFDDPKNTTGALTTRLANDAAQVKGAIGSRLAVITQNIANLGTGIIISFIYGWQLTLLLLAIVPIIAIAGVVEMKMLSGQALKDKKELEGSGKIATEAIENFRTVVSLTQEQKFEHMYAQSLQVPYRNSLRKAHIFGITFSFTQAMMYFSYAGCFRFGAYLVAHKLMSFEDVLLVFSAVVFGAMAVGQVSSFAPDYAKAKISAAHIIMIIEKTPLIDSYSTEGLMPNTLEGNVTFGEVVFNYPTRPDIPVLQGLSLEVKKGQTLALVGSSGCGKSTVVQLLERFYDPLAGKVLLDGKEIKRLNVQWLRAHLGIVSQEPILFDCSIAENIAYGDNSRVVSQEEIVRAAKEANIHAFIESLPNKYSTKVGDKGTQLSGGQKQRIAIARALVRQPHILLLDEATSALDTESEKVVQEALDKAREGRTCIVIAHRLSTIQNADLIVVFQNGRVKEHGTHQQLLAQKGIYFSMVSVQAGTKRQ
UDP-glucuronosyltransferase 2B7, sequence (P16662 whole entry): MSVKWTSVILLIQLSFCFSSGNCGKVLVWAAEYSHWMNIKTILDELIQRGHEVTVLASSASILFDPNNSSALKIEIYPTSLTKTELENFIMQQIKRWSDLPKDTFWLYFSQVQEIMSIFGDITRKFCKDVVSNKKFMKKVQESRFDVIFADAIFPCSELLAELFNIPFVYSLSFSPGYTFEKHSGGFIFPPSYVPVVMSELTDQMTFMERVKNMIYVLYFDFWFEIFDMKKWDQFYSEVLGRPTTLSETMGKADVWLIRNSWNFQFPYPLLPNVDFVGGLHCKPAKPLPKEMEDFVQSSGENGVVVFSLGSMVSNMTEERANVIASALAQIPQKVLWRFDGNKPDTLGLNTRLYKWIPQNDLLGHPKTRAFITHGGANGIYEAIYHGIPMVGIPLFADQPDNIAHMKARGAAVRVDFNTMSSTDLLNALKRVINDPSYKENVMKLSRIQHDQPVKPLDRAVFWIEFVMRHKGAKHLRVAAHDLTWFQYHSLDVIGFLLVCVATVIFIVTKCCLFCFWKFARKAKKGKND
Cytochrome P450 3A4, sequence (P08684 whole entry): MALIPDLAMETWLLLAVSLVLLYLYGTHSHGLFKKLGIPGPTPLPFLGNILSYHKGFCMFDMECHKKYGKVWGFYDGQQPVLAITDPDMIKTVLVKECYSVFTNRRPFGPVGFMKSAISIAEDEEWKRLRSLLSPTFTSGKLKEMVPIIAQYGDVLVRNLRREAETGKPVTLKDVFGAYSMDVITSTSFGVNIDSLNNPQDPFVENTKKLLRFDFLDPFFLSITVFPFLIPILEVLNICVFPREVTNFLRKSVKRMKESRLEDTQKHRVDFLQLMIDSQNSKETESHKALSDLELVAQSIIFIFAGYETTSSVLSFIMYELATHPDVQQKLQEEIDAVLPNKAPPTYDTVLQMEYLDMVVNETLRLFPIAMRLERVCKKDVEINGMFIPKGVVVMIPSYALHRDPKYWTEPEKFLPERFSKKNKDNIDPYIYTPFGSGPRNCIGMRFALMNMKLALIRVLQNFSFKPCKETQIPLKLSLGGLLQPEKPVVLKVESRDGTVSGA
Cytochrome P450 2C19, sequence (P33261 whole entry): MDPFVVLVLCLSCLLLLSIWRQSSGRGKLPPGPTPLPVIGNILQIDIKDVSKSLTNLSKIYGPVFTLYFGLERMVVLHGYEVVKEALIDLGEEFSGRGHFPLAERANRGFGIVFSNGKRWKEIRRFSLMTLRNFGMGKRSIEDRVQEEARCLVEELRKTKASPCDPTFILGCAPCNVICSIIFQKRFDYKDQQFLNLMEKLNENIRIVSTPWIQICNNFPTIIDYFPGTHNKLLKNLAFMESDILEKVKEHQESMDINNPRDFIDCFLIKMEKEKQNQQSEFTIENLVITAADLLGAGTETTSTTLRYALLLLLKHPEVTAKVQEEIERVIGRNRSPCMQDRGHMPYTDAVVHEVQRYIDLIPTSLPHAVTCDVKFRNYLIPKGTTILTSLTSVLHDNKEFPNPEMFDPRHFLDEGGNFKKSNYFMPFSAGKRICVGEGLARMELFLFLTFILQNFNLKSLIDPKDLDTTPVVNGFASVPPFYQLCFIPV

Which results are given for `C[C@@H]1CCO[C@H]2Cn3cc(C(=O)NCc4ccc(F)cc4F)c(=O)c(O)c3C(=O)N12` [DOLUTEGRAVIR]?
pIC50 [1]: < 4.00; inhibition (INH) [2]: Not Active; Activity (Hepatocyte): Toxic; pIC50 (Cytochrome P450 1A2): < 4.00; pIC50 (Cytochrome P450 2B6 [3]): < 4.00; pIC50 (Cytochrome P450 2C19): < 4.00; recovery at 3 µM (MDR1 (P-gp, ABCB1)): 84%; Papp at 3 µM [4]: 26.5 ×10⁻⁶ cm/s; Drug metabolism (Cytochrome P450 3A4): metabolite_detected; pIC50 (Cytochrome P450 2B6 [5]): < 4.00; Drug metabolism (Liver microsome): metabolite_not_detected
